Key:
Format in all cases: cell-based
[1] = test system: T47D cells; assay: Anti-proliferation (viability) of ER+ breast cancer T47D cells, 6 days (Table 7, FIG. 2B); settings: Homo sapiens, 144 h; T47D cells, 6 days, 10-point serial dilution; read-out: GI IC50 in T47D
How it was run: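 Viability is read after treatment with compounds titrated over ten serial dilution points, with exposure lasting three days for the NSCLC line and six days for the breast cancer line.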

[2] = test system: HCC1428 cells; assay: Flow cytometric analysis of Annexin V/7-AAD stained HCC1428 cells (apoptosis), 6 days (FIG. 3B); settings: HCC1428, dose approximating IC90, 6 days
Experimental: (§1) T47D cells were treated with DMSO, palbociclib, heterobifunctional compound CPD-10 for 6 days at doses approximating IC50and IC90 concentrations as indicated (FIG. 3A). HCC1428 cells were treated with DMSO, palbociclib, heterobifunctional compound CPD-10, or its negative control compound CPD-143 for 6 days at doses approximating IC90 concentrations as indicated (FIG. 3B). Cells were harvested by trypsinization, staining was carried out using the Annexin V Apoptosis Detection Kit. The percentages of early apoptotic (Annexin V^+7-AAD^−, lower right quadrant), late apoptotic (Annexin V^+7-AAD^+, upper right quadrant) and necrotic cells (Annexin V^−7-AAD^+, upper left quadrant) are indicated on dot plots.

[3] = test system: T47D parental cells; assay: CellTiter-Lumi cell viability assay, T47D parental cells, 6 days (FIG. 4); settings: Homo sapiens, 144 h
Experimental: (§2) Furthermore, we developed one ER^+ breast cancer T47D model with acquired resistance after long period of treatment with 1 μM palbociclib (over IC90). Cells were deemed resistant when growing in the presence of palbo at the same rate as parental cells. Palbo resistance was determined by CellTiter-Lumi cell viability assay (FIG. 4, IC50>10,000 nM).

[4] = test system: T47D palbo-resistant cells; assay: CellTiter-Lumi cell viability assay, T47D palbo-resistant cells, 6 days (FIG. 4); settings: Homo sapiens, 144 h
Experimental: as §2

[5] = test system: FoxM1; assay: Immunoblotting of FoxM1 protein level (FIG. 1A-1B); settings: Calu-1 (4 hours), MCF7 (24 hours)
Experimental: Calu-1 cells were treated with heterobifunctional compound CPD-10, or CDK4/6 inhibitor palbociclib at indicated concentrations for 4 hours (FIG. 1A). MCF7 cells were deprived of serum for 2 hours followed by treatment with CPD-10, or palbociclib at indicated concentrations for 24 hours (FIG. 1B).
Antibody and Reagent Anti-cyclin D1 (29785), anti-cyclin D2 (3741S), anti-cyclin D3 (2936S), anti-CDK4 (127905), anti-CDK6 (3136S), anti-phospho-Rb (8516S), anti-FoxM1 (54365), anti-cyclinA2(4656S), anti-vinculin antibody (187995) antibodies were purchased from Cell Signaling Technology. HRP-conjugated anti-α-tubulin antibody and anti-α-GAPDH antibody were purchased from GNI. Media, and other cell culture reagents were purchased from Thermo Fisher Scientific. CellTiter-Glo Luminescent Assay kit was purchased from Promega.
Calu-1, T47D, MCF7, HCC1428 and other cells were cultured at 37° C. with 5% CO2 in RPMI 1640 or DMEM medium supplemented with 10% fetal bovine serum. Cells were authenticated using the short tandem repeat (STR) assays. […]
Cultured cells were washed with cold PBS once and lysed in cold RIPA buffer supplemented with protease inhibitors and phosphatase inhibitors (Beyotime Biotechnology). […] Total protein concentrations in the lysates were determined following BCA assays (Beyotime Biotechnology). […] Protein bands were quantitated using the Image Lab software provided by Bio-Rad.

[6] = test system: T47D cells; assay: Annexin V apoptosis flow cytometry, T47D (FIG. 3A); settings: 6 days
Experimental: as §1, with “IC50 and” for “IC50and”, “Kit.” for “Kit. The percentages of early apoptotic (Annexin V^+7-AAD^−, lower right quadrant), late apoptotic (Annexin V^+7-AAD^+, upper right quadrant) and necrotic cells (Annexin V^−7-AAD^+, upper left quadrant) are indicated on dot plots.”
(§3) Assays were performed on the CytoFLEX Cytometer (Beckman Coulter), and data were analyzed using CytExpert software. For cell death and apoptosis analysis, cells were harvested by trypsinization, staining was carried out using the Annexin V Apoptosis Detection Kit (BD Biosciences). Briefly, cells were resuspended in 1× binding buffer and incubated with fluorochrome-conjugated Annexin V and 7-AAD for 15 min in darkness at room temperature.

[7] = test system: HCC1428 cells; assay: Annexin V apoptosis flow cytometry, HCC1428 (FIG. 3B); settings: HCC1428, dose approximating IC90, 6 days
Experimental: as §1, with “IC50 and” for “IC50and”, “Kit.” for “Kit. The percentages of early apoptotic (Annexin V^+7-AAD^−, lower right quadrant), late apoptotic (Annexin V^+7-AAD^+, upper right quadrant) and necrotic cells (Annexin V^−7-AAD^+, upper left quadrant) are indicated on dot plots.”
as §3

[8] = test system: T47D palbo-resistant cells; assay: Cell viability in T47D palbociclib-resistant model (FIG. 4); settings: 10-point serial dilution, 6 days
Experimental: T47D cells were cultured long-term to resistance in the presence of 1 μM Palbociclib. Palbo resistance was determined by CellTiter-Lumi cell viability assay. T47D parental or palbo-resistant cells were treated with palbociclib, or heterobifunctional compounds CPD-10 or CPD-39 following a 10-point serial dilution for 6 days.
Calu-1, T47D, MCF7, HCC1428 and other cells were cultured at 37° C. with 5% CO2 in RPMI 1640 or DMEM medium supplemented with 10% fetal bovine serum. Cells were authenticated using the short tandem repeat (STR) assays. Mycoplasma test results were negative. For palbo-resistant cell model, T47D cells were cultured long-term to resistance in the presence of 1 μM Palbociclib. Cells were deemed resistant when growing in the presence of Palbo at the same rate as parental cells.
Cells were seeded at a density of 2,000-5,000 cells per well in 96-well assay plates and treated with test compounds following a 10-point serial dilution for 3-6 days. Cell viability was determined using the CellTiter-Lumi assay kit according to the manufacturer's instructions. The dose-response curves were determined and IC50 values were calculated using the GraphPad Prism software following a nonlinear regression (least squares fit) method. Data presented was mean±standard deviation (SD)unless otherwise indicated.

[9] = molecular target: CDK4 (Homo sapiens, UniProt P11802+Q16531); assay: CDK4 percentage degradation in Calu-1 cells (Table 6); parameters: Cells that express cyclin D1-3 and CDK4/6 proteins were treated with heterobifunctional compounds; endogenous in cells; host or cells: Calu-1; settings: 16 hours
CDK4, sequence (P11802 2-303 limits assumed): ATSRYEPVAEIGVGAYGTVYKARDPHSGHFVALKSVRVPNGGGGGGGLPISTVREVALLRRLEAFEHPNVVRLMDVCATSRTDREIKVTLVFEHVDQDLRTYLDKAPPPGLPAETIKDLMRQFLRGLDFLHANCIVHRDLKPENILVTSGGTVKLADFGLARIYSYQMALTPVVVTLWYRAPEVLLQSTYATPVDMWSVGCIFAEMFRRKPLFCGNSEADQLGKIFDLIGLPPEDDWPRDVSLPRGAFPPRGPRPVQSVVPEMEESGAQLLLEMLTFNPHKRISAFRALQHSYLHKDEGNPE
CDK4, sequence (P24385 whole entry partner): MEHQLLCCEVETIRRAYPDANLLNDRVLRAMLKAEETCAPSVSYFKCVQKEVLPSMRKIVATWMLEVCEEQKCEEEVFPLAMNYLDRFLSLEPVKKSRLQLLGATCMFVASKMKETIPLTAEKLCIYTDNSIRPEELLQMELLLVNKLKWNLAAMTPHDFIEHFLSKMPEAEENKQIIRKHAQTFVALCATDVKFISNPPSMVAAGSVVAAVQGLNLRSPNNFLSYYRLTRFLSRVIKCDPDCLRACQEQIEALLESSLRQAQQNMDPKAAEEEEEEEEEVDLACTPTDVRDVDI
CDK4, sequence (Q16531 2-1140 limits assumed): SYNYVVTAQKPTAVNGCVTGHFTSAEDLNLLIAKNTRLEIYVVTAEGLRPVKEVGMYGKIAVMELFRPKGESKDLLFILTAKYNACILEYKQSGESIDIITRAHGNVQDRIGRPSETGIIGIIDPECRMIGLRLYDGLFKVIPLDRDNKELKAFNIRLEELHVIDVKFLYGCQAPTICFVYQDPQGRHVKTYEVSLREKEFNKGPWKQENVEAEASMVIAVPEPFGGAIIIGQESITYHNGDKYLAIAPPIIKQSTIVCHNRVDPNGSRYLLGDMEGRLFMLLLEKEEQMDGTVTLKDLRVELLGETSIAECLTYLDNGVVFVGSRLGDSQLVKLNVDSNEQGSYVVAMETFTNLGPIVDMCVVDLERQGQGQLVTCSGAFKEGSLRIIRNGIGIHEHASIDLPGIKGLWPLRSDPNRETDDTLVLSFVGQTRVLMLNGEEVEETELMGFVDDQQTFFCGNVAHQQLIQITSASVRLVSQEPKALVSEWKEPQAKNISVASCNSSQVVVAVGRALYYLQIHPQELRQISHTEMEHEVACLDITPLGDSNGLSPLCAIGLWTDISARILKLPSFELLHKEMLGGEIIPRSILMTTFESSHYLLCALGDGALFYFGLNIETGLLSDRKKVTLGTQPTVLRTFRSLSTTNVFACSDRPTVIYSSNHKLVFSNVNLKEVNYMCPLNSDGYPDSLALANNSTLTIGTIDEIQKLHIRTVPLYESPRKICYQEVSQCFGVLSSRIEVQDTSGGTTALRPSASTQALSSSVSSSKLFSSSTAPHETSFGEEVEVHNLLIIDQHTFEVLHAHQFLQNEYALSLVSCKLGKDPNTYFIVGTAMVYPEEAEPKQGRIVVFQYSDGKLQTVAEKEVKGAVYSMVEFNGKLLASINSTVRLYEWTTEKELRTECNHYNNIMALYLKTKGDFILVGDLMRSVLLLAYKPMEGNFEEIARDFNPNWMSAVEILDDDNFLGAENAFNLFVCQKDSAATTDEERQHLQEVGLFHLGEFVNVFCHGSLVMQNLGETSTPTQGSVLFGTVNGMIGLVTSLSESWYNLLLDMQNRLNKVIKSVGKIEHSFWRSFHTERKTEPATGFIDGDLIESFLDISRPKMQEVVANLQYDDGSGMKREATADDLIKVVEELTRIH
How it was run: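 Calu-1 cells exposed to heterobifunctional compounds at 40 nM or 200 nM for 16 h. Cyclin D1 and CDK4 levels measured by Western blot of RIPA lysates (BCA-normalised loading), bands quantified by densitometry and expressed as percentage degradation.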

IC50 [1]: ≤ 50 nM
IC50 [4]: 33 nM
inhibition at 0.04 µM ([9]; 40 nM): 50 to 80%
inhibition at 0.2 µM ([9]; 200 nM): > 80%
Compound: CNc1ccc(C(=O)Nc2ccc(N(C)C)nn2)c(NCCCCCCCNC(=O)CN2CCN(c3ccc(Nc4ncc5c(C)c(C(C)=O)c(=O)n(C6CCCC6)c5n4)nc3)CC2)n1 [CPD-10, 2-((7-(2-(4-(6-((6-acetyl-8-cyclopentyl-5-methyl-7-oxo-7,8-dihydropyrido[2,3-d]pyrimidin-2-yl)amino)pyridin-3-yl)piperazin-1-yl)acetamido)heptyl)amino)-N-(6-(dimethylamino)pyridazin-3-yl)-6-(methylamino)nicotinamide]
Annexin V+ population [2]: 55.8%
IC50 [3]: 19.5 nM
FoxM1 protein level [5]: inhibited downstream FoxM1 and cyclin A2 protein levels, and Rb phosphorylation in a concentration-dependent manner
Annexin V+ population ([6]; 15 nM): 20.9%
Annexin V+ population ([6]; 200 nM): 62.2%
Annexin V+ population [7]: 55.8%
cell viability in palbociclib-resistant model [8]: remained effective in T47D palbo-resistant model

Source: patent publication US20260297081A1, “COMPOUNDS AND METHODS OF TREATING CANCERS” (Cullgen Inc., priority 2023, published 2026)
